Measured values: the NIST ThermoML archive (doi:10.1016/j.jct.2018.02.022)
Numbers after ± are expanded uncertainties.

Assay: xn = mol fraction of the nth substance listed
Conditions: 92.3 kPa, Liquid; for viscosity: Concentric cylinders viscometry; for speed of sound: Frequency=3 MHz, Single path-length method; for mass density: Vibrating tube method

OCCOCCO [diethylene glycol] + O
Conditions | mass density, 303.15 K [kg/m3] | mass density, 308.15 K [kg/m3] | speed of sound, 303.15 K [m/s] | speed of sound, 308.15 K [m/s] | viscosity, 303.15 K [mPa·s] | viscosity, 308.15 K [mPa·s]
x1 = 0.0097 | 1003.37 ± 3.2 | 1001.63 ± 3.2 | 1533.2 ± 1.8 | 1542 ± 1.8 | – | –
x1 = 0.0201 | 1010.67 ± 3.2 | 1008.81 ± 3.2 | 1557.2 ± 1.8 | 1564 ± 1.8 | – | –
x1 = 0.0297 | 1017 ± 3.2 | 1015.02 ± 3.2 | 1577.4 ± 1.8 | 1582.4 ± 1.8 | – | –
x1 = 0.0397 | 1023.28 ± 3.2 | 1021.17 ± 3.2 | 1596.1 ± 1.8 | 1599.4 ± 1.8 | – | –
x1 = 0.049 | 1028.58 ± 3.2 | 1026.33 ± 3.2 | – | – | 1.6 ± 0.22 | 1.413 ± 0.2
x1 = 0.0502 | 1029.24 ± 3.2 | 1026.99 ± 3.2 | 1614 ± 1.8 | 1615.7 ± 1.8 | – | –
x1 = 0.0591 | 1033.98 ± 3.2 | 1031.63 ± 3.2 | 1627.4 ± 1.8 | 1627.8 ± 1.8 | – | –
x1 = 0.0703 | 1039.6 ± 3.2 | 1037.11 ± 3.2 | 1642.7 ± 1.8 | 1641.6 ± 1.8 | – | –
x1 = 0.0796 | 1043.88 ± 3.3 | 1041.29 ± 3.3 | 1653.2 ± 1.8 | 1650.9 ± 1.8 | – | –
x1 = 0.0897 | 1048.13 ± 3.3 | 1045.45 ± 3.3 | 1663.2 ± 1.8 | 1659.9 ± 1.8 | – | –
x1 = 0.0992 | 1051.97 ± 3.3 | 1049.2 ± 3.3 | – | – | 2.605 ± 0.36 | 2.273 ± 0.32
x1 = 0.1004 | 1052.46 ± 3.3 | 1049.66 ± 3.3 | 1672.7 ± 1.8 | 1668.3 ± 1.8 | – | –
x1 = 0.149 | 1068.06 ± 3.3 | 1064.94 ± 3.3 | – | – | 3.83 ± 0.54 | 3.297 ± 0.46
x1 = 0.1507 | 1068.42 ± 3.3 | 1065.27 ± 3.3 | 1698.5 ± 1.8 | 1690.5 ± 1.8 | – | –
x1 = 0.1996 | 1079.15 ± 3.3 | 1075.79 ± 3.3 | 1705.1 ± 1.8 | 1695.2 ± 1.8 | – | –
x1 = 0.1998 | 1079.37 ± 3.3 | 1076.01 ± 3.3 | – | – | 5.27 ± 0.74 | 4.501 ± 0.63
x1 = 0.2467 | 1086.77 ± 3.3 | 1083.27 ± 3.3 | 1701.8 ± 1.8 | 1690.9 ± 1.8 | – | –
x1 = 0.249 | 1086.95 ± 3.3 | 1083.44 ± 3.3 | – | – | 6.766 ± 0.95 | 5.753 ± 0.81
x1 = 0.2943 | 1091.84 ± 3.3 | 1088.25 ± 3.3 | 1694.1 ± 1.8 | 1682.5 ± 1.8 | – | –
x1 = 0.2987 | 1092.38 ± 3.3 | 1088.8 ± 3.3 | – | – | 8.326 ± 1.2 | 7.056 ± 0.99
x1 = 0.3501 | 1096.45 ± 3.3 | 1092.82 ± 3.3 | – | – | 9.951 ± 1.4 | 8.401 ± 1.2
x1 = 0.3511 | 1096.61 ± 3.3 | 1092.99 ± 3.3 | 1681.7 ± 1.9 | 1669.7 ± 1.9 | – | –
x1 = 0.3995 | 1099.42 ± 3.3 | 1095.83 ± 3.3 | 1670.2 ± 1.9 | 1658 ± 1.9 | – | –
x1 = 0.4007 | 1099.43 ± 3.3 | 1095.8 ± 3.3 | – | – | 11.5 ± 1.6 | 9.648 ± 1.4
x1 = 0.4504 | 1101.7 ± 3.3 | 1098.07 ± 3.3 | – | – | 12.97 ± 1.8 | 10.79 ± 1.5
x1 = 0.4527 | 1101.88 ± 3.3 | 1098.24 ± 3.3 | 1657.7 ± 1.9 | 1645.4 ± 1.9 | – | –
x1 = 0.4973 | 1103.4 ± 3.3 | 1099.78 ± 3.3 | – | – | 14.26 ± 2 | 11.82 ± 1.7
x1 = 0.5008 | 1103.56 ± 3.3 | 1099.92 ± 3.3 | 1646.6 ± 1.9 | 1634.3 ± 1.9 | – | –
x1 = 0.5449 | 1104.75 ± 3.3 | 1101.11 ± 3.3 | 1637.3 ± 1.9 | 1625 ± 1.9 | – | –
x1 = 0.553 | 1105 ± 3.3 | 1101.38 ± 3.3 | – | – | 15.69 ± 2.2 | 12.94 ± 1.8
x1 = 0.5834 | 1105.61 ± 3.3 | 1101.98 ± 3.3 | 1629.2 ± 1.9 | 1617 ± 1.9 | – | –
x1 = 0.5938 | 1105.91 ± 3.3 | 1102.29 ± 3.3 | – | – | 16.62 ± 2.3 | 13.67 ± 1.9
x1 = 0.6482 | 1106.76 ± 3.3 | 1103.13 ± 3.3 | 1616.6 ± 1.9 | 1604.4 ± 1.9 | – | –
x1 = 0.6514 | 1106.89 ± 3.3 | 1103.27 ± 3.3 | – | – | 17.9 ± 2.5 | 14.67 ± 2.1
x1 = 0.6864 | 1107.34 ± 3.3 | 1103.72 ± 3.3 | – | – | 18.56 ± 2.6 | 15.18 ± 2.1
x1 = 0.6982 | 1107.42 ± 3.3 | 1103.8 ± 3.3 | 1608.1 ± 1.9 | 1596 ± 1.9 | – | –
x1 = 0.7444 | 1107.94 ± 3.3 | 1104.33 ± 3.3 | 1600.4 ± 1.9 | 1588.3 ± 1.9 | – | –
x1 = 0.7556 | 1108.01 ± 3.3 | 1104.38 ± 3.3 | – | – | 19.68 ± 2.8 | 16.06 ± 2.2
x1 = 0.7962 | 1108.41 ± 3.3 | 1104.81 ± 3.3 | 1592.7 ± 2 | 1580.7 ± 2 | – | –
x1 = 0.7999 | 1108.35 ± 3.3 | 1104.73 ± 3.3 | – | – | 20.32 ± 2.8 | 16.57 ± 2.3
x1 = 0.8401 | 1108.74 ± 3.3 | 1105.14 ± 3.3 | 1586.6 ± 2 | 1574.5 ± 2 | – | –
x1 = 0.8525 | 1108.74 ± 3.3 | 1105.13 ± 3.3 | – | – | 20.98 ± 2.9 | 17.08 ± 2.4
x1 = 0.8947 | 1109.09 ± 3.3 | 1105.49 ± 3.3 | 1579.5 ± 2 | 1567.5 ± 2 | – | –
x1 = 0.9002 | 1109.09 ± 3.3 | 1105.5 ± 3.3 | – | – | 21.55 ± 3 | 17.53 ± 2.5
x1 = 0.9092 | 1109.17 ± 3.3 | 1105.58 ± 3.3 | 1577.7 ± 2 | 1565.7 ± 2 | – | –
x1 = 0.919 | 1109.23 ± 3.3 | 1105.64 ± 3.3 | 1576.5 ± 2 | 1564.5 ± 2 | – | –
x1 = 0.9303 | 1109.27 ± 3.3 | 1105.68 ± 3.3 | 1575.3 ± 2 | 1563.3 ± 2 | – | –
x1 = 0.9393 | 1109.28 ± 3.3 | 1105.69 ± 3.3 | 1574.3 ± 2 | 1562.3 ± 2 | – | –
x1 = 0.9473 | 1109.36 ± 3.3 | 1105.77 ± 3.3 | 1573.3 ± 2 | 1561.4 ± 2 | – | –
x1 = 0.9554 | 1109.45 ± 3.3 | 1105.86 ± 3.3 | – | – | 22.07 ± 3.1 | 17.95 ± 2.5
x1 = 0.9566 | 1109.41 ± 3.3 | 1105.82 ± 3.3 | 1572.2 ± 2 | 1560.2 ± 2 | – | –
x1 = 0.9694 | 1109.47 ± 3.3 | 1105.88 ± 3.3 | 1570.8 ± 2 | 1558.9 ± 2 | – | –
x1 = 0.9801 | 1109.52 ± 3.3 | 1105.93 ± 3.3 | 1569.6 ± 2 | 1557.7 ± 2 | – | –
x1 = 0.9915 | 1109.56 ± 3.2 | 1105.97 ± 3.2 | 1568.3 ± 2 | 1556.4 ± 2 | – | –
x1 = 1 | 1109.6 ± 3 | 1106.01 ± 3 | 1567.2 ± 2 | 1555.3 ± 2 | 22.48 ± 3.1 | 18.27 ± 2.6
